ChEMBL document CHEMBL5725856, “Substituted N-bicyclo-2-aryl-quinolin-4-carboxamides and use thereof” (2018)

Target: Prostaglandin F2-alpha receptor (Homo sapiens, UniProt P43088)
Test: In Vitro Test of Inhibition of Human FP Receptor Activity : For the characterization of test substances in respect of FP antagonism, PGF2α-induced calcium flux in FP-expressing CHEM1 cells (Millipore, HTS093C) was used.3000 cells in 25 μl of full medium [DMEM F12, 10% FCS, 1.35 mM sodium pyruvate, 20 mM HEPES, 4 mM GlutaMAX, 2% sodium bicarbonate, 1% Pen/Strep, 1% 100× non-essential amino acids] are sown per well of a 384 multititer plate (from Greiner, TC plate, black with clear base) and incubated at 37° C./5% CO2 for 24 hours. Prior to the measurement, the medium is replaced by 30 μl of Fluo-8 AM loading buffer [calcium-free Tyrode (130 mM NaCl, 5 mM KCl, 20 mM HEPES, 1 mM MgCl2, 4.8 mM NaHCO3, pH 7.4), 2 mM CaCl2, 1× SmartBlock (from CANDOR Bioscience GmbH), 4.5 mM Probenecid, 5 μM Fluo-8 AM, 0.016% Pluronic, 0.04% Brilliant black] and incubated at 37° C./5% CO2 for 30 minutes. The test substance is prepared in DMSO in various concentrations as a dose-response curve (starting concentration 10 mM, dilution factor 3.16) and prediluted 1:50 with calcium-free Tyrode/2 mM CaCl2. 10 μl of the prediluted substance solution are added to the Fluo-8-laden cells and incubated at 37° C./5% CO2 for 10 minutes. […]
Type: cell-based

Sequence of Prostaglandin F2-alpha receptor (P43088 whole entry): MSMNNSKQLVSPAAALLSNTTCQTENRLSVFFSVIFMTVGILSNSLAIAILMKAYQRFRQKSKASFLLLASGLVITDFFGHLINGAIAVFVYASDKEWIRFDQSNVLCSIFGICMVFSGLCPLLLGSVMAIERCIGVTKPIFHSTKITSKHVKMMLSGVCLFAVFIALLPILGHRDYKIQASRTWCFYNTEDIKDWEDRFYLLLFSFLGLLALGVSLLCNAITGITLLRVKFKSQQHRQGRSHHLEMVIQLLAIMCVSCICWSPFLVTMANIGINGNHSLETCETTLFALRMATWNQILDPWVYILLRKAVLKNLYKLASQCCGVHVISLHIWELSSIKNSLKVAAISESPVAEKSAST

IC50: 456 nM
Structure (SMILES): Cc1c(-c2ccccc2)nc2ccc(C(C)(C)C)cc2c1C(=O)NC12CCC(C(=O)O)(CC1)CC2
